Test results published in patent US4455290A, “Inhibition of fibrin polymerization by a peptide isolated from fibrin Fragment D1” (Research Corporation, priority 1981, dated 1984).
Peptide text beside a SMILES is read from it.

Legend:
[1] = target: T1, batroxobin fibrin monomer (Homo sapiens, UniProt P02671+P02675+P02679); experiment: Sephadex gel equilibrium binding, batroxobin fibrin monomer; conditions: 17 experiments, mean and standard deviation
T1 construct: fibrin monomer which was formed by batroxobin (lacking fibrinopeptide A); made in house; host or cells: not recombinant: made from fibrinogen by treatment with batroxobin (Bothrops atrox venom enzyme)
T1 sequence (P02671 36-629 isoform P02671-2): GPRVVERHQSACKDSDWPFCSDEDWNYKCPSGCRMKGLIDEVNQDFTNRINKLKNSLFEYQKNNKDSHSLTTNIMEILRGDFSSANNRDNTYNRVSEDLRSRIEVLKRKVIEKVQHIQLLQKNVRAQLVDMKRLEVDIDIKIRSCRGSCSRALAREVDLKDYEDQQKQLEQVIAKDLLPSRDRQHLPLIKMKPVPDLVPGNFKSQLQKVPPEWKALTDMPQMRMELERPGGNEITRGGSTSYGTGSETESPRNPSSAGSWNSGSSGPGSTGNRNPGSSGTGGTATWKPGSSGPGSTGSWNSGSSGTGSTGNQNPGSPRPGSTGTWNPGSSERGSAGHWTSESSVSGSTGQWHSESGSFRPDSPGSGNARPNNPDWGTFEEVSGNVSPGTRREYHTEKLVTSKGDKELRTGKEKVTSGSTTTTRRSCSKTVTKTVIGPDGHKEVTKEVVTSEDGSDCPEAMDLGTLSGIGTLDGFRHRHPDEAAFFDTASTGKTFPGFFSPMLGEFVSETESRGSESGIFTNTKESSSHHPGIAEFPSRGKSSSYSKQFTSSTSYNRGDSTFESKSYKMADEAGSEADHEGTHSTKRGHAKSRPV
T1 sequence (P02675 31-491): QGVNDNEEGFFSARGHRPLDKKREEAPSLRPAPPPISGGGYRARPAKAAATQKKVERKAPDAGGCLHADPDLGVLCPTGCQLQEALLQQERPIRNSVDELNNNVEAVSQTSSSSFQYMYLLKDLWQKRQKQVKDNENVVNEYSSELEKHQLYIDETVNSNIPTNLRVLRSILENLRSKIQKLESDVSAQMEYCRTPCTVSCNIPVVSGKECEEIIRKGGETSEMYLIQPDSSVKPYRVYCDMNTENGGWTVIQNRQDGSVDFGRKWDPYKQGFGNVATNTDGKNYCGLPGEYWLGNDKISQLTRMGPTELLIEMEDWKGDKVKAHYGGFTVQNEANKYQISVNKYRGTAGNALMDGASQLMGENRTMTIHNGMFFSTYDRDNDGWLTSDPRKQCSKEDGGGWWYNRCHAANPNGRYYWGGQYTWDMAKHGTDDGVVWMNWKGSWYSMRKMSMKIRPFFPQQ
T1 sequence (P02679 27-437 isoform P02679-2): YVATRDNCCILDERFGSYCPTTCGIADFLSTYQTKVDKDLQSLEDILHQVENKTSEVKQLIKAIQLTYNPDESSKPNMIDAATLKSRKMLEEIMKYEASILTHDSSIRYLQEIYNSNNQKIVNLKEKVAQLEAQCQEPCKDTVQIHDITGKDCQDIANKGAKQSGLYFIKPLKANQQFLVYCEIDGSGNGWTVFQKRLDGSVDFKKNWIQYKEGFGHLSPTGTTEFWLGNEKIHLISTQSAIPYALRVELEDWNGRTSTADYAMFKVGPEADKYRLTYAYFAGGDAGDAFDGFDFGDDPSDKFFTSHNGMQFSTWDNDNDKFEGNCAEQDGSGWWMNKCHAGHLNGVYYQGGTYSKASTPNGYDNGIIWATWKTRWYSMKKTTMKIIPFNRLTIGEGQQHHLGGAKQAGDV
Procedure: (§1) Acta 133, 376-379 (1979).
(§2) The purification of NDSK involves incubation of fibrinogen in cyanogen bromide in the presence of 70% formic acid. This treatment may alter the binding sites. Therefore, an attempt was made to reproduce the data using fibrin monomer instead of thrombin-treated NDSK. A major difficulty, the self-polymerization of fibrin monomer, was overcome by using high molar ratios of D1 Peptide to fibrin monomer. However, in this situation the concentration of D1 Peptide could be varied only over a small range of concentrations. D1 Peptide was added to the Sephadex gel equilibrium system and incubated for 10 min., then soluble fibrin monomer was added in a molar excess of D1 Peptide to fibrin monomer of 100-1000 fold. Under these conditions the lag time in the fibrin monomer polymerization was more than 30 min.
(§3) In experiments using thrombin fibrin monomer the number of binding sites for D1 Peptide was 1.82±0.26 (15 experiments, mean and standard deviation). For batroxobin fibrin monomer the number of binding sites was 1.91±0.24 (17 experiments, mean and standard deviation).

[2] = target: bovine serum albumin (Bos taurus, UniProt P02769); experiment: Equilibrium binding of 125-I D1 Peptide, bovine serum albumin
From the text: as §1

[3] = target: T2, intact NDSK (Homo sapiens, UniProt P02671+P02675+P02679); experiment: Equilibrium binding of 125-I D1 Peptide, intact NDSK
T2 sequence (P02671 20-70 limits assumed): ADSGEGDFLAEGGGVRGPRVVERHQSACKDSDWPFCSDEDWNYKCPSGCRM
T2 sequence (P02675 31-148 limits assumed): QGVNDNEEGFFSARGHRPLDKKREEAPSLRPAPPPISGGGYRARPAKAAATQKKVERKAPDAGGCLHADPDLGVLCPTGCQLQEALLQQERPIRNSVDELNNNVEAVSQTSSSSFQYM
T2 sequence (P02679 27-104 limits assumed): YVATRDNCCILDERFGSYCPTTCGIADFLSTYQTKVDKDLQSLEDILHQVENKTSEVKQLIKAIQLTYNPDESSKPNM

[4] = target: T3, thrombin fibrin monomer (Homo sapiens, UniProt P02671+P02675+P02679); experiment: Sephadex gel equilibrium binding, thrombin fibrin monomer; conditions: 15 experiments, mean and standard deviation
T3 construct: Thrombin cleaves the bonds Aα16 Arg-17 Gly and Bβ14 Arg-15 Gly, releasing two molecules of fibrinopeptide A and two molecules of fibrinopeptide B; made in house; host or cells: not recombinant: made from fibrinogen by treatment with thrombin
T3 sequence (P02671 36-629 isoform P02671-2): T1 sequence (P02671 36-629 isoform P02671-2)
T3 sequence (P02675 45-491): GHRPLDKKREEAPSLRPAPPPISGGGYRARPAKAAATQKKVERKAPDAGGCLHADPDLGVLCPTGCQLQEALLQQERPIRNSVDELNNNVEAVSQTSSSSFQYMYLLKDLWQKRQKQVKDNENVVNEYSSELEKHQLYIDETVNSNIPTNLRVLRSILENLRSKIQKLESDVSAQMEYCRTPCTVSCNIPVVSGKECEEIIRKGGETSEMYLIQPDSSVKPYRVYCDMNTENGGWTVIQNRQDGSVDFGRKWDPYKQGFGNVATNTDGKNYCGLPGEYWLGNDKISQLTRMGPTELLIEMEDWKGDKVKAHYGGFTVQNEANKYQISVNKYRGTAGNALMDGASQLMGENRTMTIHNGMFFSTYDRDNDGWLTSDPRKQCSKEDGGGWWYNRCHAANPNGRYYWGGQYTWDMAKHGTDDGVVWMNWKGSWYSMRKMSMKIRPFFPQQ
T3 sequence (P02679 27-437 isoform P02679-2): T1 sequence (P02679 27-437 isoform P02679-2)
Procedure: as §1, §2, §3

Sequence of bovine serum albumin (P02769 25-607): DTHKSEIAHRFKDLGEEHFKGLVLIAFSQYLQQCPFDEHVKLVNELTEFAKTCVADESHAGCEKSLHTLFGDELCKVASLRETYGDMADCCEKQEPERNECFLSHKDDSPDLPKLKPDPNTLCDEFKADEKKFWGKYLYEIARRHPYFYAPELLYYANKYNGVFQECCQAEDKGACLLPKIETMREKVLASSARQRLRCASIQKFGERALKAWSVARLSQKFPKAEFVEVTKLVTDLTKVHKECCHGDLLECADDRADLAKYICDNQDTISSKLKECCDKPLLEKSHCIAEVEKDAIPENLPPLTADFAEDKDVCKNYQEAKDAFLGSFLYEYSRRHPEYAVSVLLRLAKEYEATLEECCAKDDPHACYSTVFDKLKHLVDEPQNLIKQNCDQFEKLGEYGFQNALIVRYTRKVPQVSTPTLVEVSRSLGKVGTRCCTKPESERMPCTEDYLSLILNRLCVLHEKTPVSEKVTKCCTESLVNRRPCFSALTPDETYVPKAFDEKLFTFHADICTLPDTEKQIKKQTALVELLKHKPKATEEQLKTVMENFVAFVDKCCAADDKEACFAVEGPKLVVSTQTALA

For `CC[C@H](C)[C@H](NC(=O)[C@H](CCCCN)NC(=O)[C@H](CCSC)NC(=O)[C@@H](NC(=O)[C@@H](NC(=O)[C@H](CCCCN)NC(=O)[C@H](CCCCN)NC(=O)[C@H](CCSC)NC(=O)[C@H](CO)NC(=O)[C@H](Cc1ccc(O)cc1)NC(=O)[C@H](Cc1c[nH]c2ccccc12)NC(=O)[C@H](CCCNC(=N)N)NC(=O)[C@@H](N)[C@@H](C)O)[C@@H](C)O)[C@@H](C)O)C(=O)N[C@H](C(=O)N1CCC[C@H]1C(=O)N[C@@H](Cc1ccccc1)C(=O)N[C@@H](CC(N)=O)C(=O)N[C@@H](CCCNC(=N)N)C(=O)N[C@@H](CC(C)C)C(=O)N[C@H](C(=O)N[C@H](C(=O)NCC(=O)N[C@@H](CCC(=O)O)C(=O)NCC(=O)N[C@@H](CCC(N)=O)C(=O)N[C@@H](CCC(N)=O)C(=O)N[C@@H](Cc1c[nH]cn1)C(=O)N[C@@H](Cc1c[nH]cn1)C(=O)N[C@@H](CC(C)C)C(=O)NCC(=O)NCC(=O)N[C@@H](C)C(=O)N[C@@H](CCCCN)C(=O)N[C@@H](CCC(N)=O)C(=O)N[C@@H](C)C(=O)NCC(=O)N[C@@H](CC(=O)O)C(=O)N[C@H](C(=O)O)C(C)C)[C@@H](C)CC)[C@@H](C)O)[C@@H](C)CC` [D1 Peptide] (H-TRWYSMKKTTMKIIPFNRLTIGEGQQHHLGGAKQAGDV-OH), the “number of binding sites for D1 Peptide” value [1] was 1.91±0.24, the “binding to bovine serum albumin” value [2] was “no measurable binding” and the “binding to intact NDSK” value [3] was “no measurable binding”. For the same compound, the “number of binding sites for D1 Peptide” value [4] was 1.82±0.26.
